# Experimental data: patent US20030186281A1, “Modified tetracycline repressor protein compositions and methods of use” (priority 2001, published 2003)
# System: tet operator sequence
# Assay: β-galactosidase activity of a tetracycline-regulated promoter in transformed E. coli with revTetR, in the presence and absence of anhydrotetracycline (atc)
# Assay type: cell-based, Escherichia coli
# Conditions: FIG. 2
# Description: The relative activity of revTetR repressors was determined at 28° C. and 37° C. for each clone by measuring β-galactosidase activity of a tetracycline-regulated promoter in transformed Escherichia coli in the presence and absence of the tetracycline analog, anhydrotetracycline (atc). The relative β-galactosidase activity was measured in standard Miller units and is presented as the percent of maximal expression as measured in the absence of Tet repressor. […] With respect to each mutant, as well as the wild-type controls, FIG. 2 provides two horizontal bars; the upper horizontal bar represents the level of β-galactosidase activity in the absence of anhydrotetracycline (−atc) while the lower horizontal bar represents the level of β-galactosidase activity in the presence of anhydrotetracycline (+atc). […]
# The ability of each revTetR clone to bind to its cognate tet operator sequence and regulate transcription in a prokaryotic organism, Escherichia coli, in the presence and absence of a tetracycline analog (anhydrotetracycline, atc) was determined (Table 3, FIG. 2). […]
structure (smiles),measurement,value
"Cc1c2c(c(O)c3c(O)cccc13)C(=O)[C@]1(O)C(=O)C(C(N)=O)=C(O)[C@@H](N(C)C)[C@@H]1C2 [anhydrotetracycline, reference compound]",repression of transcription in prokaryotic organisms by the tetracycline analog (with revTetR),about 50 fold
